According to patent US7825126B2 (The United States of America as represented by the …, priority 2004, dated 2010):
Where two headings read alike, the source gives them in different places.

Experiments:
[1] = target: T1, human A2B adenosine receptor (hA2BAR) (Homo sapiens, UniProt P29275); assay: Activation of human A2B adenosine receptor at 10 μM; type: cell-based; settings: CHO cells
T1 sequence (P29275 1-332): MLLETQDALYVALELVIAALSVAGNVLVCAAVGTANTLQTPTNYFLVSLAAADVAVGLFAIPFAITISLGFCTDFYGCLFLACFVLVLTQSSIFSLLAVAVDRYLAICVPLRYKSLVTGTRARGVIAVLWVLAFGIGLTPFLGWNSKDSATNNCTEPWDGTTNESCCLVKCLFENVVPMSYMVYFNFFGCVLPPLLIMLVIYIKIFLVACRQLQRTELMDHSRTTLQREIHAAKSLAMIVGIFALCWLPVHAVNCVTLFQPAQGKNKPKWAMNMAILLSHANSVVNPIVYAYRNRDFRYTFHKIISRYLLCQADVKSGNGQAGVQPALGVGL

human A2A receptors = target: T2, human A2A receptors (Homo sapiens, UniProt P29274); assay: Binding at human A2A adenosine receptor ([3H]CGS21680, HEK-293 cell membranes); settings: [3H]CGS 21680; for Ki: mean ± s.e.m., n = 3-5, read-out: Ki(hA2AAR)
T2 construct: expressed in transfected cells

human A1 receptors = target: T3, human A1 receptors (Homo sapiens, UniProt P30542); assay: Binding at human A1 adenosine receptor ([3H]R-PIA, CHO cell membranes); settings: for Ki: mean ± s.e.m., n = 3-5, read-out: Ki(hA1AR)
T3 construct: expressed in transfected cells
T3 sequence (P30542 1-326): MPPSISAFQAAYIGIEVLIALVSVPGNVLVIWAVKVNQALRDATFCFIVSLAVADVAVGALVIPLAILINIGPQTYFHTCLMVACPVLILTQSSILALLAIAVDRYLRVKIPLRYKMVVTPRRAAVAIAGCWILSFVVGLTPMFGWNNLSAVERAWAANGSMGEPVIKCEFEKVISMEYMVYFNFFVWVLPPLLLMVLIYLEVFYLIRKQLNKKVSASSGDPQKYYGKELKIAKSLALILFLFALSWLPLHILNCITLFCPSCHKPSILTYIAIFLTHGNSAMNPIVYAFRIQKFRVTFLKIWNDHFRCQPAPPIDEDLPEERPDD

[2] = target: T4, human A3 adenosine receptor (Homo sapiens, UniProt P0DMS8); assay: Cyclic AMP accumulation assay (inhibition of forskolin-stimulated cAMP), CHO cells expressing human A3 adenosine receptor; settings: 10 μM, relative to 10 μM Cl-IB-MECA
T4 sequence (P0DMS8 1-318): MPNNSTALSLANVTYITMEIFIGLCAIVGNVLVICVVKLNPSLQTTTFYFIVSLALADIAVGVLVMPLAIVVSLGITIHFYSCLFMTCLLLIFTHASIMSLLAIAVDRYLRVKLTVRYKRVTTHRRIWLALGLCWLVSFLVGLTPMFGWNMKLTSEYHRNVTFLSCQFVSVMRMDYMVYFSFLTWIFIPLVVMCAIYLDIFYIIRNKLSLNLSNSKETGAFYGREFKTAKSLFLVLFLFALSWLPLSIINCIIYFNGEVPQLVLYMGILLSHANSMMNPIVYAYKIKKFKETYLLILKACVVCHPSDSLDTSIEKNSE

[3] = target: T4, human A3 adenosine receptor; parameters: expressed in transfected cells; host or cells: CHO cells; settings: relative to 10 μM Cl-IB-MECA, data from literature (footnotes c, d, e, f); cited from earlier work
[4] = target: T4, human A3 adenosine receptor; assay: Binding at human A3 adenosine receptor ([125I]I-AB-MECA, CHO cell membranes); parameters: expressed in transfected cells; host or cells: CHO cells; settings: [125I]I-AB-MECA; mean ± s.e.m., n = 3-5; read-out: Ki(hA3AR)

T2 sequence (P29274 whole entry): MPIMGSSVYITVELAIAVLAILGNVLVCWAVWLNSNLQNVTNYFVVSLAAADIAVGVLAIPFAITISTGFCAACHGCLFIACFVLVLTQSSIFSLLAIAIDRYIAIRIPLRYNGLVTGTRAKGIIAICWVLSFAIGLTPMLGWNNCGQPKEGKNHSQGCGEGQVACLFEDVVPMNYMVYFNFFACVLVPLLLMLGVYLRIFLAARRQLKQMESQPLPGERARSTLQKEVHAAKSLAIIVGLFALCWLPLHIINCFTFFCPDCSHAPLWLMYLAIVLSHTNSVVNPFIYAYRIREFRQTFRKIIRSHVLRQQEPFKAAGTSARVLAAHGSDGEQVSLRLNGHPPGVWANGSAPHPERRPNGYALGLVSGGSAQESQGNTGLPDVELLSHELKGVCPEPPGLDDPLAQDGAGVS

Row | % Activation (hA2BAR) at 10 μM [1] [%] | Ki (human A2A receptors) [nM] | % displ. at 10 μM (hA2AAR) (human A2A receptors) [%] | SMILES | further results
1 | 48 | 4800 ± 200 |  | CNC(=O)[C@@]12C[C@@H]1[C@@H](n1cnc3c(N[C@@H]4C[C@H]4c4ccccc4)nc(Cl)nc31)[C@H](O)[C@@H]2O (relative stereo) [Compound 33, (1′S,2′R,3′S,4′R,5′S)-(4′-{2-chloro-6-[(trans-2-phenylcyclopropyl)amino]purin-9-yl}-2′,3′-dihydroxybicyclo[3.1.0]hexyl)-N-methylcarboxamide] | 
2 |  | 1600 ± 400 |  | CNC(=O)[C@@]12C[C@@H]1[C@@H](n1cnc3c(NCc4cccc(I)c4)nc(Cl)nc31)[C@H](O)[C@@H]2O [Compound 4, reference compound] | Ki (human A1 receptors): 65 ± 17 nM; % Activation (hA3AR) at 10 μM [2]: 3 ± 2%
3 | 28 | 5100 ± 200 |  | CNC(=O)C12CC1C(n1cnc3c(NCc4cccc(F)c4)nc(Cl)nc31)C(O)C2O (stereo not drawn) [Compound 19, (1′S,2′R,3′S,4′S,5′S)-4′-[6-(3-Fluorobenzylamino)-2-chloro-purin-9-yl]-2′,3′-dihydroxy-bicyclo[3.1.0]hexane-1′-carboxylic acid methylamide] | 
4 | 58 | 480 ± 20 |  | CNC(=O)C12CC1C(n1cnc3c(NCc4cc(I)ccc4Cl)nc(Cl)nc31)C(O)C2O (stereo not drawn) [Compound 21, (1′S,2′R,3′S,4′S,5′S)-4′-[6-(2-Chloro-5-iodo-benzylamino)-2-chloro-purin-9-yl]-2′,3′-dihydroxy-bicyclo[3.1.0]hexane-1′-carboxylic acid methylamide] | 
5 | 37 | 1200 ± 100 |  | CNC(=O)C12CC1C(n1cnc3c(NCc4cc(Cl)ccc4OC)nc(Cl)nc31)C(O)C2O (stereo not drawn) [Compound 22, (1′S,2′R,3′S,4′S,5′S)-4′-[6-(5-Chloro-2-methoxy-benzylamino)-2-chloro-purin-9-yl]-2′,3′-dihydroxy-bicyclo[3.1.0]hexane-1′-carboxylic acid methylamide] | 
6 |  | 800 ± 70 |  | CNC(=O)C12CC1C(n1cnc3c(NCc4cc(Cl)ccc4OCC(N)=O)nc(Cl)nc31)C(O)C2O (stereo not drawn) [Compound 23, (1′S,2′R,3′S,4′S,5′S)-4′-[6-(5-Chloro-2-(aminocarbonylmethyloxy)-benzylamino)-2-chloro-purin-9-yl]-2′,3′-dihydroxy-bicyclo[3.1.0]hexane-1′-carboxylic acid methylamide] | 
7 | 46 | 430 ± 30 |  | CNC(=O)C12CC1C(n1cnc3c(NCc4cc(I)ccc4OC)nc(Cl)nc31)C(O)C2O (stereo not drawn) [Compound 25, (1′S,2′R,3′S,4′S,5′S)-4′-[6-(5-Iodo-2-methoxy-benzylamino)-2-chloro-purin-9-yl]-2′,3′-dihydroxy-bicyclo[3.1.0]hexane-1′-carboxylic acid methylamide] | 
8 | 24 | 3800 ± 200 |  | CNC(=O)C12CC1C(n1cnc3c(NCc4ccccc4C)nc(Cl)nc31)C(O)C2O (stereo not drawn) [Compound 27, (1′S,2′R,3′S,4′S,5′S)-4′-[6-(2-Methyl-benzylamino)-2-chloro-purin-9-yl]-2′,3′-dihydroxy-bicyclo[3.1.0]hexane-1′-carboxylic acid methylamide] | 
9 | 46 | 3700 ± 600 |  | CNC(=O)C12CC1C(n1cnc3c(NCc4cccc(C)c4)nc(Cl)nc31)C(O)C2O (stereo not drawn) [Compound 28, (1′S,2′R,3′S,4′S,5′S)-4′-[6-(3-Methyl-benzylamino)-2-chloro-purin-9-yl]-2′,3′-dihydroxy-bicyclo[3.1.0]hexane-1′-carboxylic acid methylamide] | 
10 | 28 |  | 56 | CNC(=O)C12CC1C(n1cnc3c(NCc4cccc(C#CCO)c4)nc(Cl)nc31)C(O)C2O (stereo not drawn) [Compound 29, (1′S,2′R,3′S,4′S,5′S)-4′-[6-(3-(3-Hydroxypropynyl)-benzylamino)-2-chloro-purin-9-yl]-2′,3′-dihydroxy-bicyclo[3.1.0]hexane-1′-carboxylic acid methylamide] | 
11 | 6 |  | 12 | CNC(=O)C12CC1C(n1cnc3c(NCc4cc(C#CCO)ccc4Cl)nc(Cl)nc31)C(O)C2O (stereo not drawn) [Compound 30, (1′S,2′R,3′S,4′S,5′S)-4′-[6-(2-Chloro-5-(3-hydroxypropynyl)-benzylamino)-2-chloro-purin-9-yl]-2′,3′-dihydroxy-bicyclo[3.1.0]hexane-1′-carboxylic acid methylamide] | Ki [4]: 217 ± 27 nM; % displ. at 10 μM (hA1AR) (human A1 receptors; 10 μM): 14%; % Activation (hA3AR) at 10 μM [2]: 108 ± 5%
12 | 22 |  | 28 | CNC(=O)C12CC1C(n1cnc3c(NCc4ccc(N)cc4)nc(Cl)nc31)C(O)C2O (stereo not drawn) [Compound 31a, (1′S,2′R,3′S,4′S,5′S)-4′-[6-(4-Amino-benzylamino)-2-chloro-purin-9-yl]-2′,3′-dihydroxy-bicyclo[3.1.0]hexane-1′-carboxylic acid methylamide] | 
13 |  | 1100 ± 100 |  | CNC(=O)[C@@]12C[C@@H]1[C@@H](n1cnc3c(NCc4ccc(N)c(I)c4)nc(Cl)nc31)[C@H](O)[C@@H]2O [Compound 31b] | 
14 | 4 |  | 33 | CNC(=O)C12CC1C(n1cnc3c(NCc4cccnc4)nc(Cl)nc31)C(O)C2O (stereo not drawn) [Compound 32, (1′S,2′R,3′S,4′S,5′S)-4′-[6-(3-Pyridylmethylamino)-2-chloro-purin-9-yl]-2′,3′-dihydroxy-bicyclo[3.1.0]hexane-1′-carboxylic acid methylamide] | 
15 |  |  | 52 | CNC(=O)C12CC1C(n1cnc3c(NCc4cccc(Cl)c4)nc(SC)nc31)C(O)C2O (stereo not drawn) [Compound 36] | % Activation (hA3AR) at 10 μM [2]: 100 ± 4%

Row | SMILES | % Activation (hA2BAR) at 10 μM [1] [%] | Ki (human A2A receptors) [nM] | % displ. at 10 μM (hA2AAR) (human A2A receptors) [%] | further results
16 | OC[C@H]1O[C@@H](n2cnc3c(NCc4cccc(Cl)c4)ncnc32)[C@H](O)[C@@H]1O [Compound 8, reference compound] |  | 1400 ± 200 |  | Ki (human A1 receptors): 20 ± 3 nM; % Activation (hA3AR) at 10 μM [3]: 80 ± 3^d %
17 | CNC(=O)[C@@]12C[C@@H]1[C@H](n1cnc3c(NC)nc(N)nc31)[C@H](O)[C@@H]2O [Compound 15, (1′S,2′R,3′S,4′S,5′S)-4′-[6-Methylamino-2-amino-purin-9-yl]-2′,3′-dihydroxy-bicyclo[3.1.0]hexane-1′-carboxylic acid methylamide] |  |  | 17 | 
18 | CNC(=O)[C@@]12C[C@@H]1[C@@H](n1cnc3c(NCc4cccc(I)c4)ncnc31)[C@H](O)[C@@H]2O [Compound 16] |  | 6200 ± 100 |  | Ki (human A1 receptors): 700 ± 270 nM; % Activation (hA3AR) at 10 μM [3]: 100^e %
19 | CNC(=O)[C@@]12C[C@@H]1[C@H](n1cnc3c(NCc4cc(Cl)ccc4Cl)nc(Cl)nc31)[C@H](O)[C@@H]2O [Compound 20, (1′S,2′R,3′S,4′S,5′S)-4′-[6-(2,5-Dichlorobenzylamino)-2-chloro-purin-9-yl]-2′,3′-dihydroxy-bicyclo[3.1.0]hexane-1′-carboxylic acid methyl amide] | 32 | 1300 ± 100 |  | 
20 | CCOC(=O)[C@@]12C[C@@H]1[C@H](n1cnc3c(NCc4cccc(Cl)c4)nc(I)nc31)[C@H](O)[C@@H]2O [Compound 35, (1′S,2′R,3′S,4′S,5′S)-4′-[6-(3-Chlorobenzylamino)-2-iodo-purin-9-yl]-2′,3′-dihydroxy-bicyclo[3.1.0]hexane-1′-carboxylic acid ethyl ester] |  |  | 43 | 
